Patent US6680054B1 (priority 1996, dated 2004)

Assays:
influenza strain G70C = format: cell-based
[1] = test system: NWS/G70C influenza A virus

Row | Substance | Lowest Concentration (μM of GG167 units) that Inhibited Agglutination, G70C (influenza strain G70C) | amount of virus clearly detected [1] | compound concentration giving the best result [1] | detection signal at higher concentrations of compound [1] | detection signal at lower concentrations [1]
1 | Fetuin | 0.73 µM | – | – | – | –
2 | GG167-Bovine Serum Albumin-Biotin conjugate [Compound 3a] | – | 10^6 pfu | 0.1 µM | the signal was weaker | the detection signal was also weaker
